Results taken from publication PMC5972582, “Bidirectional GPR119 Agonism Requires Peptide YY and Glucose for Activity in Mouse and Human Colon Mucosa” (Endocrinology, 2018).

Molecular target: T1, GPR119 (WT mouse descending colon mucosa) (Mus musculus, UniProt Q7TQP3)
T1 construct: native full-length receptor in L-cells of intact mouse colonic mucosa (Ussing chamber); no recombinant protein
T1 sequence (Q7TQP3 1-335): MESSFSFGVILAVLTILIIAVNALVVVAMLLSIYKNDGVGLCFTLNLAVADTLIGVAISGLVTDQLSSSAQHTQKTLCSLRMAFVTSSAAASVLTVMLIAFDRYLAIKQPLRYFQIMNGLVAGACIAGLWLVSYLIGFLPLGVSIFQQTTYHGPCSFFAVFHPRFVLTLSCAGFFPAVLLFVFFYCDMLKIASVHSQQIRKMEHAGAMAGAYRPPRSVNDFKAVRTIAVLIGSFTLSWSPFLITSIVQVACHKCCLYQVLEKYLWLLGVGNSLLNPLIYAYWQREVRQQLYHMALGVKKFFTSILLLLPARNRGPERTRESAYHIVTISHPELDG
Assay: short-circuit current (Isc) in native mouse descending colon mucosa, Ussing chamber
Details: agonist, apical addition, indirect tissue read-out (PYY-mediated fall in Isc) after 10 nM VIP, 11.1 mM glucose
From the text: short-circuit current (Isc) in native mouse descending colon mucosa, Ussing chamber on GPR119 (WT mouse descending colon mucosa)

CCCCCCCC/C=C\CCCCCCCC(=O)OC(CO)CO [2-OG]
EC50: 4900 nM

CC(C)c1noc(C2CCN(c3ncnc(Nc4ccc(S(C)(=O)=O)cc4F)c3[N+](=O)[O-])CC2)n1 [AR231453]
EC50 (partial agonist): 1.2 nM

CCCCCCCC/C=C\CCCCCCCC(=O)NCCO [OEA]
EC50: 14700 nM

AR435707
EC50: 27.7 nM

AR440006
EC50: 170 nM
